# According to US8729093B2 (priority 2006, dated 2014):
# Where two headings read alike, the source gives them in different places.
# Key:
# [1] = tested on: rice blast; assay type: in vivo, Pyricularia oryzae
# [2] = tested on: rice blast; assay: whole plant or invertebrate; assay type: in vivo; conditions: Pyricularia oryzae, 504 h, read-out: prevention value
# [3] = tested on: rice "Bakanae" disease; assay: whole plant or invertebrate; assay type: in vivo; conditions: Oryza sativa, 504 h, read-out: prevention value
# [4] = rice (Sachikaze), nursery box soil treated at sowing time or transplanting time, 400 g a.i./10 a, observed 7 days after inoculation, untreated plants = 3
Structure (SMILES),"disease severity [1, 4]",pest or weed control at 0.02 % a.i. [2] [%],pest or weed control at 0.02 % a.i. [3] [%],disease severity ([1]; in vivo)
"CC1(C)c2c(F)cccc2C(c2cnc3ccccc3c2)=[N+]([O-])C1(C)C [Compound No. 3-100, 3-(5-fluoro-3,3,4,4-tetramethyl-2-oxido-3,4-dihydroisoquinolin-1-yl)quinoline]",0,≥ 80,≥ 80,
"CC1(C)N=C(c2cnc3ccccc3c2)c2ccccc2C1(F)F [Compound No. 1-929, 3-(4,4-difluoro-3,3-dimethyl-3,4-dihydroisoquinolin-1-yl)quinoline]",0,≥ 80,≥ 80,
"CC1(C)c2c(F)cccc2C2(c3cnc4ccccc4c3)ON2C1(C)C (stereo not shown) [Compound No. 2-100, 5-fluoro-3,3,4,4-tetramethyl-8b-quinolin-3-yl-4,8b-dihydro-3H-oxazireno[3,2-a]isoquinoline]",,≥ 80,≥ 80,
"CC1(c2ccc(F)cc2)Cc2ccccc2C(c2cnc3ccccc3c2)=N1 (stereo not shown) [Compound No. 1-502, 3-[3-methyl-3-(4-fluorophenyl)-3,4-dihydroisoquinolin-1-yl]quinoline]",0,,,
"CC1(C)Cc2c(Br)cccc2C(c2cnc3ccccc3c2)=N1 [Compound No. 1-56, 3-(5-bromo-3,3-dimethyl-3,4-dihydroisoquinolin-1-yl)quinoline]",0,,,
"CC1(C(F)(F)F)Cc2ccccc2C(c2cnc3ccccc3c2)=N1 (stereo not shown) [Compound No. 1-387, 3-(3-methyl-3-trifluoromethyl-3,4-dihydroisoquinolin-1-yl)quinoline]",0,,,
"CC1(C)Cc2c(F)cccc2C(c2cnc3ccccc3c2)=N1 [Compound No. 1-32, 3-(5-fluoro-3,3-dimethyl-3,4-dihydroisoquinolin-1-yl)quinoline]",0,≥ 80,≥ 80,
"CC1(C)N=C(c2cnc3ccccc3c2)c2ccccc2C1(C)C [Compound No. 1-865, 3-(3,3,4,4-tetramethyl-3,4-dihydroisoquinolin-1-yl)quinoline]",,,≥ 80,
"CC1(C)N2OC2(c2cnc3ccccc3c2)c2ccccc2C1(F)F (stereo not shown) [Compound No. 2-134, 4,4-difluoro-3,3-dimethyl-8b-quinolin-3-yl-4,8b-dihydro-3H-oxazireno[3,2-a]isoquinoline]",,≥ 80,,
"CC1(C)Cc2c(Cl)cccc2C(c2cnc3ccccc3c2)=N1 [Compound No. 1-44, 3-(5-chloro-3,3-dimethyl-3,4-dihydroisoquinolin-1-yl)quinoline]",0,,,
"CC1(C)c2cc(F)ccc2C(c2cnc3ccccc3c2)=[N+]([O-])C1(C)C [Compound No. 3-109, 3-(6-fluoro-3,3,4,4-tetramethyl-2-oxido-3,4-dihydroisoquinolin-1-yl)quinoline]",0,,,
"CC1(C)N=C(c2cnc3ccccc3c2)c2cccc(F)c2C1(F)F [Compound No. 1-930, 3-(4,4,5-trifluoro-3,3-dimethyl-3,4-dihydroisoquinolin-1-yl)quinoline]",0,≥ 80,≥ 80,
"CC1(CC(F)(F)F)Cc2ccccc2C(c2cnc3ccccc3c2)=N1 (stereo not shown) [Compound No. 1-425, 3-[3-methyl-3-(2,2,2-trifluoroethyl)-3,4-dihydroisoquinolin-1-yl]quinoline]",0,,,
"CC1(C)N=C(c2cnc3c(F)cccc3c2)c2cccc(F)c2C1(C)C [Compound No. 1-918, 8-fluoro-3-(5-fluoro-3,3,4,4-tetramethyl-3,4-dihydroisoquinolin-1-yl)quinoline]",0,,,
"CC1(C)Cc2c(ccc(F)c2F)C(c2cnc3ccccc3c2)=N1 [Compound No. 1-117, 3-(5,6-difluoro-3,3-dimethyl-3,4-dihydroisoquinolin-1-yl)quinoline]",0,,,
"Cc1cccc2cc(C3=NC(C)(C)C(C)(C)c4c(F)cccc43)cnc12 [Compound No. 1-919, 3-(5-fluoro-3,3,4,4-tetramethyl-3,4-dihydroisoquinolin-1-yl)-8-methylquinoline]",0,,,
"CC1(C)c2ccccc2C2(c3cnc4ccccc4c3)ON2C1(C)C (stereo not shown) [Compound No. 2-91, 3,3,4,4-tetramethyl-8b-quinolin-3-yl-4,8b-dihydro-3H-oxazireno[3,2-a]isoquino line]",,,,0
"CC1(C)[N+]([O-])=C(c2cnc3ccccc3c2)c2cccc(F)c2C1(F)F [Compound No. 3-135, 3-(4,4,5-trifluoro-3,3-dimethyl-2-oxido-3,4-dihydroisoquinolin-1-yl)quinoline]",0,≥ 80,≥ 80,
"CC1(C)N2OC2(c2cnc3ccccc3c2)c2cccc(F)c2C1(F)F (stereo not shown) [Compound No. 2-135, 4,4,5-trifluoro-3,3-dimethyl-8b-quinolin-3-yl-4,8b-dihydro-3H-oxazireno[3,2-a]isoquinoline]",,≥ 80,,
"CC1(C)[N+]([O-])=C(c2cnc3ccccc3c2)c2ccccc2C1(F)F [Compound No. 3-134, 3-(4,4-difluoro-3,3-dimethyl-2-oxido-3,4-dihydroisoquinolin-1-yl)quinoline]",0,≥ 80,≥ 80,
"CCCC1(C)Cc2c(F)cccc2C(c2cnc3ccccc3c2)=N1 (stereo not shown) [Compound No. 1-185, 3-(5-fluoro-3-methyl-3-propyl-3,4-dihydroisoquinolin-1-yl)quinoline]",0,,,
"CC1(C)N=C(c2cnc3ccccc3c2)c2cccc(F)c2C1(C)C [Compound No. 1-866, 3-(5-fluoro-3,3,4,4-tetramethyl-3,4-dihydroisoquinolin-1-yl)quinoline]",0,≥ 80,≥ 80,
